In brackets after ≈: the same amount, converted by molar mass.
Key:
[1] = tested on: isolates of Legionella pneumophila and other Legionella spp.; assay: microbe, parasite or virus in culture; assay type: cell-based
[2] = tested on: L. pneumophila serogroup 2; assay: microbe, parasite or virus in culture; assay type: cell-based; details: Legionella pneumophila; for MIC: 48 h, read-out: MIC Range
[3] = tested on: L. pneumophila serogroup 3; assay: microbe, parasite or virus in culture; assay type: cell-based; details: Legionella pneumophila; for MIC: 48 h, read-out: MIC Range
L. dumoffii = assay: organism not typed; assay type: cell-based; details: for MIC: 48 h, read-out: MIC Range
L. longbeacheae = assay: organism not typed; assay type: cell-based; details: for MIC: 48 h, read-out: MIC Range
[4] = tested on: L. pneumophila serogroup 6; assay: microbe, parasite or virus in culture; assay type: cell-based; details: Legionella pneumophila; for MIC: 48 h, read-out: MIC Range
[5] = tested on: L. pneumophila serogroup 4; assay: microbe, parasite or virus in culture; assay type: cell-based; details: Legionella pneumophila; for MIC: 48 h, read-out: MIC Range
[6] = tested on: L. pneumophila serogroup 7; assay: microbe, parasite or virus in culture; assay type: cell-based; details: Legionella pneumophila; for MIC: 48 h, read-out: MIC Range
L. micadadei = assay: organism not typed; assay type: cell-based, L. micdadei; details: for MIC: 48 h, read-out: MIC Range
[7] = tested on: Erythromycin-susceptible L. pneumophila; assay type: cell-based, Legionella pneumophila; details: Erythromycin-susceptible L. pneumophila (n = 15); 4 × MIC; mean ± SD
[8] = tested on: L. pneumophila serogroup 5; assay: microbe, parasite or virus in culture; assay type: cell-based; details: Legionella pneumophila; for MIC: 48 h, read-out: MIC Range
[9] = tested on: Erythromycin-susceptible Legionella spp. other than L. pneumophila; assay type: cell-based; details: Erythromycin-susceptible Legionella spp. (n = 13); 4 × MIC; mean ± SD
[10] = tested on: L. pneumophila serogroup 1; assay: microbe, parasite or virus in culture; assay type: cell-based, Legionella pneumophila; details: Legionella pneumophila; for MIC: 48 h, read-out: MIC Range; for MIC90: L. pneumophila serogroup 1 (n = 85)
Other Legionella spp. = assay: microbe, parasite or virus in culture; assay type: cell-based; details: for MIC: 48 h, read-out: MIC Range
[11] = tested on: L. pneumophila serogroup 8, 9; assay: microbe, parasite or virus in culture; assay type: cell-based; details: Legionella pneumophila; for MIC: 48 h, read-out: MIC Range

SMILES | MIC90 [1] | MIC50 [2] | MIC90 [2] | MIC [2] | MIC50 [3] | MIC90 [3] | MIC [3] | MIC50 (L. dumoffii) | MIC90 (L. dumoffii) | MIC (L. dumoffii) | MIC50 (L. longbeacheae) | MIC90 (L. longbeacheae) | MIC (L. longbeacheae) | MIC50 [4] | MIC90 [4] | MIC [4] | MIC50 [5] | MIC90 [5] | MIC [5] | MIC50 [6] | also measured
CO[C@H]1/C=C/O[C@@]2(C)Oc3c(C)c(O)c4c(O)c(c(/C=N/N5CCN(C)CC5)c(O)c4c3C2=O)NC(=O)/C(C)=C\C=C\[C@H](C)[C@H](O)[C@@H](C)[C@@H](O)[C@@H](C)[C@H](OC(C)=O)[C@@H]1C [Rifampicin] | ≤ 8 ng/mL | ≤ 4 ng/mL | ≤ 4 ng/mL | ≤ 4 ng/mL | ≤ 4 ng/mL | ≤ 4 ng/mL | ≤ 4 ng/mL | 8 ng/mL (≈ 9.72 nM) | 16 ng/mL (≈ 19.4 nM) | 4 to 30 ng/mL (≈ 4.86 to 36.5 nM) | ≤ 4 ng/mL | 60 ng/mL (≈ 72.9 nM) | 4 to 60 ng/mL (≈ 4.86 to 72.9 nM) | ≤ 4 ng/mL | ≤ 4 ng/mL | 4 to 8 ng/mL (≈ 4.86 to 9.72 nM) | ≤ 4 ng/mL | ≤ 4 ng/mL | 4 to 8 ng/mL (≈ 4.86 to 9.72 nM) | ≤ 4 ng/mL | MIC90 [6]: ≤ 4 ng/mL; MIC [6]: ≤ 4 ng/mL; MIC50 (L. micadadei): 8 ng/mL (≈ 9.72 nM); MIC90 (L. micadadei): 8 ng/mL (≈ 9.72 nM); MIC (L. micadadei): 8 ng/mL (≈ 9.72 nM); Mean PAE [7]: 2.86 ± 5 h; MIC50 [8]: ≤ 4 ng/mL; MIC90 [8]: ≤ 4 ng/mL; MIC [8]: ≤ 4 ng/mL; Mean PAE [9]: 3.09 ± 4 h; MIC50 [10]: ≤ 4 ng/mL; MIC [10]: 4 to 8 ng/mL (≈ 4.86 to 9.72 nM); MIC90 [10]: 8 ng/mL (≈ 9.72 nM); MIC50 (Other Legionella spp.): ≤ 4 ng/mL; MIC90 (Other Legionella spp.): 8 ng/mL (≈ 9.72 nM); MIC (Other Legionella spp.): 4 to 8 ng/mL (≈ 4.86 to 9.72 nM); MIC50 [11]: ≤ 4 ng/mL; MIC90 [11]: ≤ 4 ng/mL; MIC [11]: ≤ 4 ng/mL
N[C@@H]1[C@H]2CN(c3nc4c(cc3F)c(=O)c(C(=O)O)cn4-c3ccc(F)cc3F)C[C@@H]12 [Trovafloxacin] | ≤ 8 ng/mL | ≤ 4 ng/mL | ≤ 4 ng/mL | ≤ 4 ng/mL | ≤ 4 ng/mL | ≤ 4 ng/mL | ≤ 4 ng/mL | 8 ng/mL (≈ 19.2 nM) | 8 ng/mL (≈ 19.2 nM) | 4 to 8 ng/mL (≈ 9.61 to 19.2 nM) | ≤ 4 ng/mL | ≤ 4 ng/mL | ≤ 4 ng/mL | ≤ 4 ng/mL | ≤ 4 ng/mL | ≤ 4 ng/mL | ≤ 4 ng/mL | ≤ 4 ng/mL | ≤ 4 ng/mL | ≤ 4 ng/mL | MIC90 [6]: ≤ 4 ng/mL; MIC [6]: ≤ 4 ng/mL; MIC50 (L. micadadei): ≤ 4 ng/mL; MIC90 (L. micadadei): ≤ 4 ng/mL; MIC (L. micadadei): ≤ 4 ng/mL; Mean PAE [7]: 1.71 ± 1 h; MIC50 [8]: ≤ 4 ng/mL; MIC90 [8]: ≤ 4 ng/mL; MIC [8]: 4 to 8 ng/mL (≈ 9.61 to 19.2 nM); Mean PAE [9]: 1.22 ± 1 h; MIC50 [10]: ≤ 4 ng/mL; MIC [10]: 4 to 16 ng/mL (≈ 9.61 to 38.4 nM); MIC90 [10]: ≤ 4 ng/mL; MIC50 (Other Legionella spp.): ≤ 4 ng/mL; MIC90 (Other Legionella spp.): ≤ 4 ng/mL; MIC (Other Legionella spp.): ≤ 4 ng/mL; MIC50 [11]: ≤ 4 ng/mL; MIC90 [11]: ≤ 4 ng/mL; MIC [11]: ≤ 4 ng/mL

— US6340689B1 (priority 1999, dated 2002)
